Structures can show the parent of a compound that is named as a salt.
What follows are compounds tested against T1, human 5-HT3 serotonin receptors (Homo sapiens, UniProt P46098) (assay: biochemical). Settings: not given.
T1 sequence (P46098 24-478): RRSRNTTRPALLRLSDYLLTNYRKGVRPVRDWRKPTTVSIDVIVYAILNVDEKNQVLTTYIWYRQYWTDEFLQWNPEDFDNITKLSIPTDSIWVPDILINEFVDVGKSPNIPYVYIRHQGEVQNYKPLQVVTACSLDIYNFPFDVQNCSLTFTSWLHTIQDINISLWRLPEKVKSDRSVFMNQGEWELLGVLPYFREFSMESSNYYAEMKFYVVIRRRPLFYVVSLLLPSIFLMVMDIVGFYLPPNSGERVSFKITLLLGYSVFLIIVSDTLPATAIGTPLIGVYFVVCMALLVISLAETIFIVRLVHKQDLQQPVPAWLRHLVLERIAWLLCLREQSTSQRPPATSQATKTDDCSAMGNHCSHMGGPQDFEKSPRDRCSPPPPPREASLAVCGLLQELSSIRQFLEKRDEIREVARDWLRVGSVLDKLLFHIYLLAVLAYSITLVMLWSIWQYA
Assay type: binding

Row | Compound | Ki [µM]
1 | Clc1ccc(NC2=NO[C@@]3(C2)CN2CCC3CC2)cc1 [(R)-20, (R)—N-(4-chlorophenyl)-4H-1′-azaspiro[isoxazole-5,3′-bicyclo[2.2.2]octan]-3-amine hydrochloride] | 0.11
2 | Clc1cccc(NC2=NO[C@@]3(C2)CN2CCC3CC2)c1 [(R)-34, (R)—N-(3-chlorophenyl)-4H-1′-azaspiro[isoxazole-5,3′-bicyclo[2.2.2]octan]-3-amine hydrochloride] | 0.012

Same assay, conditions: CHO cell membranes expressing human 5-HT3 receptors, [3H]BRL 43694, 120 min at room temperature; read-out: h-5HT3 Ki

Row | Compound | Ki [µM]
3 | Clc1ccc2cc(NC3=NO[C@@]4(C3)CN3CCC4CC3)ncc2c1 [(R)-19, (R)—N-(7-chloroisoquinolin-3-yl)-4H-1′-azaspiro[isoxazole-5,3′-bicyclo[2.2.2]octan]-3-amine hydrochloride] | > 10
4 | c1ccc2nc(NC3=NO[C@@]4(C3)CN3CCC4CC3)ncc2c1 [(R)-22, (R)—N-(quinazolin-2-yl)-4H-1′-azaspiro[isoxazole-5,3′-bicyclo[2.2.2]octan]-3-amine hydrochloride] | 5.2
5 | Clc1cccc2cc(NC3=NO[C@@]4(C3)CN3CCC4CC3)ncc12 [(R)-23, (R)—N-(8-chloroisoquinolin-3-yl)-4H-1′-azaspiroksoxazole-5,3^1-bicyclo[2.2.2]octan1-3-amine hydrochloride] | 1.2
6 | Clc1cccc2cnc(NC3=NO[C@@]4(C3)CN3CCC4CC3)cc12 [(R)-24, (R)—N -(5-chloroisoquinolin-3-yl)-4H-1′-azaspiroksoxazole-5,3′-bicyclo[2.2.2]octan1-3-amine hydrochloride] | 0.26
7 | Cc1ccc2sc(NC3=NO[C@@]4(C3)CN3CCC4CC3)nc2c1 [(R)-25, (R)—N -(5-methylbenzo[d]thiazol-2-yl)-4H-1′-azaspiro[isoxazole-5,3′-bicyclo[2.2.2]octan]-3-amine hydrochloride] | 4.2
8 | c1cc2sc(NC3=NO[C@@]4(C3)CN3CCC4CC3)nc2cc1C1CC1 [(R)-26, (R)—N -(5-cyclopropylbenzo[d]thiazol-2-yl)-4H-1′-azaspiro[isoxazole-5,3′-bicyclo[2.2.2]octan]-3-amine hydrochloride] | 3.1
9 | Fc1ccc2sc(NC3=NO[C@@]4(C3)CN3CCC4CC3)nc2c1 [(R)-27, (R)—N-(5-fluorobenzo[d]thiazol-2-yl)-4H-1′-azaspiro[isoxazole-5,3′-bicyclo[2.2.2]octan]-3-amine hydrochloride] | 5.7
10 | Clc1cc2nc(NC3=NO[C@@]4(C3)CN3CCC4CC3)sc2cc1Cl [(R)-30, (R)—N-(5 ,6 - dichlor obenzo[d]thiazol-2-yl)-4H-1′-azaspiro[isoxazole-5,3′-bicyclo[2.2.2]octan]-3-amine hydrochloride] | > 10
11 | Cc1cc2ccc(NC3=NO[C@@]4(C3)CN3CCC4CC3)cc2o1 [(R)-40, (R)—N-(2-methylbenzofuran-6-yl)-4H-1′-azaspiro[isoxazole-5,3′-bicyclo[2.2.2]octan]-3-amine hydrochloride] | > 10
12 | Cc1cc2ccc(NC3=NO[C@@]4(C3)CN3CCC4CC3)cc2s1 [(R)-42, (R)—N-(2-methylbenzo[b]thiophen-6-yl)-4H-1′-azaspiro[isoxazole-5,3′-bicyclo[2.2.2]octan]-3-amine hydrochloride] | > 10
13 | Cc1cc2cc(NC3=NO[C@@]4(C3)CN3CCC4CC3)ccc2s1 [(R)-43, (R)—N-(2-methylbenzo[b]thiophen-5-yl)-4H-1′-azaspiro[isoxazole-5,3′-bicyclo[2.2.2.]octan]-3-amine hydrochloride] | 5.9
14 | Fc1ccc2cc(NC3=NO[C@@]4(C3)CN3CCC4CC3)ncc2c1 [(R)-44, (R)—N-(7-fluoroisoquinolin-3-yl)-4H-F-azaspiro[isoxazole-5,3^1-bicyclo[2.2.2]octan]-3-amine hydrochloride] | > 10
15 | Fc1ccc2cnc(NC3=NO[C@@]4(C3)CN3CCC4CC3)cc2c1 [(R)-45, (R)—N-(6-fluoroisoquinolin-3-yl)-4H-1′-azaspiro[isoxazole-5,3′-bicyclo[2.2.2]octan]-3-amine hydrochloride] | > 10

— patent US20170247393A1, “Aminoisoxazoline Compounds as Agonists of Alpha7-Nicotinic Acetylcholine Receptors” (Forum Pharmaceuticals, Inc., priority 2015, published 2017)
